Assay results: patent US20070254950A1, “Oculoselective Drugs and Prodrugs” (Othera Pharmaceuticals, Inc., priority 2004, published 2007)

Legend:
albino rabbits [1] = experiment: Evaluation of ocular irritation; type: in vivo, rabbit
Protocol: Thirty albino rabbits were randomly divided into five groups. Each rabbit was dosed in the conjunctival sac of the right eye topically every ten minutes for one hour (six doses) with 50 μL of 0.0%, 0.3%, 0.5%, 1.0% and 2% of test compound, in 0.9% saline solution. The treated eye of each rabbit was examined for indications of ocular irritation, including swelling, discharge, redness, iritis of conjunctiva, eyelid, iris as well as opacity and involvement of the cornea. Individual scores were added to determine the degree of slight, moderate or severe irritation. Ocular observations were made before the treatment, one hour after the first and sixth instillation and then 1, 2, 3, 4 and 7 days, using a slit lamp.

[2] = Accelerated stability test of 0.25% solutions in acetate buffer, HPLC; type: physicochemical; details: for projected shelf-life of eye drop formulation: at room temperature, projected from the accelerated test
Protocol: An accelerated stability test was conducted on 0.25% solutions of compounds 6, 7, and 8 (Example 2) at 40° C. for 1, 2, 3, 4, 8 and 12 weeks and monitored for the disappearance of the prodrugs and appearance of the parent compound by HPLC analysis. The parent compound (referred to hereinafter as compound 4) has the formula: [drawing 47]
The respective compounds were dissolved in an acetate buffer, pH 3.5 (0.018% sodium acetate, 0.135% acetic acid, 0.9% sodium chloride in water for injection) to obtain 0.25% solution. The stability of the compounds was determined at 40° C. for 1, 2, 3, 4, 8, and 12 weeks. The concentration of the parent compound as well as the concentrations of the prodrug compounds 6, 7, and 8 at each time point by HPLC method.

albino rabbits [3] = experiment: Corneal anesthesia measurements (Cochet's esthesiometer); type: in vivo, rabbit
Protocol: The effect of a 50 μl single instillation of 0.3%, 0.5%, 1.0% and 2.0% solution of compound 7 on corneal anesthesia, after a single instillation in the conjunctival sac of the right eyes of albino rabbits (N=5) was measured using a Cochet's esthesiometer (nylon thread: 0.12 mm diameter, 10 mm long). Corneal anesthesia was evaluated by the number of corneal mechanical stimuli necessary to induce a blinking reflex. The effect of drug solutions was compared with sterile 0.9% NaCl treated animals (control group) and 0.4% oxybuprocaine (Novesine®).

[4] = Ocular bioavailability (aqueous humor levels by HPLC); type: in vivo; details: single instillation into conjunctival sac
Protocol: Three rabbits were used per time point. The […] test substance was administered in a single instillation using a micropipette into the conjunctival sac of the right and the left eyes. The rabbits were anesthetized with an intramuscular injection of Imalgène® 1000 (ketamine 32 mg/kg), and Rompun® (xylasine 7.5 mg/kg). They were then desanguinated by cardiac puncture and thereafter euthanized by an overdose of pentobarbital. Immediately after death, the eyes were micro-dissected to obtain: cornea (C), aqueous humor (AH), and iris-ciliary body (ICB). All samples were stored at −80° C. Only aqueous humor (AH) samples were analyzed by HPLC.

[5] = target: Human recombinant adrenergic beta-1 (Homo sapiens, UniProt P08588); experiment: Human recombinant adrenergic beta-1 radioligand binding assay ([125I]Cyanopindolol); details: [125I]Cyanopindolol radioligand; read-out: Binding efficacy IC50
Human recombinant adrenergic beta-1, sequence (P08588 whole entry): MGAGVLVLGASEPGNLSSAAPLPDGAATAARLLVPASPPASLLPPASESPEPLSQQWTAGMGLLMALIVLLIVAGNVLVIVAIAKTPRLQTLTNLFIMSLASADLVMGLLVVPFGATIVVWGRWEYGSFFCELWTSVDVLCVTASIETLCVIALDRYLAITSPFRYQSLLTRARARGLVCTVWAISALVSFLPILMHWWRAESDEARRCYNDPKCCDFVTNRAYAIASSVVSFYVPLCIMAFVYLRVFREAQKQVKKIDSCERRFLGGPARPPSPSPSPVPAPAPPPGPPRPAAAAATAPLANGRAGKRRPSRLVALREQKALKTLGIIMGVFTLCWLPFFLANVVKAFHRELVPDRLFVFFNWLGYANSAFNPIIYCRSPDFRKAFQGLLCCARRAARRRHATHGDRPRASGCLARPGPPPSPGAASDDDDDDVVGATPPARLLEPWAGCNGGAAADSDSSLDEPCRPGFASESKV
Protocol: Human recombinant adrenergic beta-1 Assays (Radioligand Binding) were conducted according to the procedure described by Feve, B., et al., Proc. Natl. Acad. Sci. USA, 91, 5677, 1994 using [[^125I]]Cyanopindolol as a radioligand. The results are expressed in IC50 (nM). (Table B)

SMILES	projected shelf-life of eye drop formulation [2]	level of the prodrug itself in aqueous humor [4]	IC50 [5] [nM]	other results
Cc1cc(O)c(O)cc1C(=O)OCC(CNC(C)(C)CNC(=O)C1CCOC1)OC(=O)C(C)(C)C (stereo not shown) [Compound 6, reference compound]	2.6 months	below the detection limit	–	ocular irritation (albino rabbits [1]; at 1% concentration): moderate irritation; corneal sensitivity loss (albino rabbits [3]; at 1%): complete corneal sensitivity loss
Cc1cc(O)c(O)cc1C(=O)OCC(CNC(C)(C)CNC(=O)C1CCOC1)OC(=O)C1(C)CC1 (stereo not shown) [Compound 7, 4,5-Dihydroxy-2-methyl-benzoic acid 3-{1,1-dimethyl-2-[(tetrahydro-furan-3-carbonyl)-amino]-ethylamino}-2-(1-methyl-cyclopropanecarbonyloxy)-propyl ester]	at least 18 months	also present in aqueous humor	–	ocular irritation (albino rabbits [1]; topical, six times every ten minutes at 0.3%, 0.5%, 1.0% and 2.0%, right conjunctival sac, vs 0.9% saline control): no ocular irritation; relative stability (percent degradation time course, FIG. 1) ([2]; 0.25% solution, 40° C., pH 3.5, up to 12 weeks): most stable; corneal sensitivity (local anesthetic activity) (albino rabbits [3]; single 50 μl instillation of 0.3%, 0.5%, 1.0% and 2.0% solution, compared to 0.4% oxybuprocaine): no corneal sensitivity (local anesthetic activity)
Cc1cc(O)c(O)cc1C(=O)OCC(CNC(C)(C)CNC(=O)C1CCOC1)OC(=O)C1CC1(C)C (stereo not shown) [Compound 8, 4,5-dihydroxy-2-methyl-benzoic acid 2-(2,2-dimethyl-cyclopropanecarbonyloxy)-3-{1,1-dimethyl-2-[(tetrahydro-furan-3-carbonyl)-amino]-ethylamino}-propyl ester]	7.9 months	–	–	–
Cc1cc(O)c(O)cc1C(=O)OC[C@@H](O)CNC(C)(C)CO [Compound 15, (S)-4,5-dihydroxy-2-methyl-benzoic acid 2-hydroxy-3-(2-hydroxy-1,1-dimethyl-ethylamino)-propyl ester]	–	–	39	–
Cc1cc(O)c(O)cc1C(=O)OC[C@@H](O)CNC(C)(C)COC(=O)C(C)(C)C [Compound 17, (S)-4,5-bis-dihydroxy-2-methyl-benzoic acid 3-[2-(2,2-dimethyl-propionyloxy)-1,1-dimethyl-ethylamino]-2-hydroxy-propyl ester]	–	–	12	–
Cc1cc(O)c(O)cc1C(=O)OC[C@@H](O)CNC(C)(C)COC(=O)C1CCOC1 (stereo partly drawn) [Compound 19, (S)-Tetrahydro-furan-3-carboxylic acid 2-[3-(4,5-dihydroxy-2-methyl-benzoyloxy)-2-hydroxy-propylamino]-2-methyl-propyl ester]	–	–	6.4	–
